Measured values: the supplement of paper PMC6045584
± gives the standard deviation of the averaged measurements.

What was measured:
SOTRASTAURIN/AEB071 = compound: CN1CCN(c2nc(C3=C(c4c[nH]c5ccccc45)C(=O)NC3=O)c3ccccc3n2)CC1 [SOTRASTAURIN/AEB071]; assay: surviving fraction relative to DMSO-only wells; higher = less growth inhibition; conditions: exposure time: 5 days
Procedure, shortened: (§1)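 After seeding at 250–500 cells per well in 384-well plates and a 24-hour wait, log-phase tumour cell lines were exposed without interruption for five days to inhibitors at 0.5, 1, 5, 10, 50, 100, 500 and 1000 nM. CellTiter-Glo luminescence was recorded after 10 minutes at room temperature. Viability is reported as surviving fraction, the luminescence normalised to the median of DMSO-only wells.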

TEMOZOLOMIDE = compound: Cn1nnc2c(C(N)=O)ncn2c1=O [TEMOZOLOMIDE]; assay: as above; conditions: exposure time: 5 days
Procedure, shortened: as §1

| Test System | surviving fraction (SOTRASTAURIN/AEB071; 0.5 nM) | surviving fraction (SOTRASTAURIN/AEB071; 1 nM) | surviving fraction (SOTRASTAURIN/AEB071; 5 nM) | surviving fraction (SOTRASTAURIN/AEB071; 10 nM) | surviving fraction (SOTRASTAURIN/AEB071; 50 nM) | surviving fraction (SOTRASTAURIN/AEB071; 100 nM) | surviving fraction (SOTRASTAURIN/AEB071; 500 nM) | surviving fraction (SOTRASTAURIN/AEB071; 1000 nM) | surviving fraction (TEMOZOLOMIDE; 0.5 nM) | surviving fraction (TEMOZOLOMIDE; 1 nM) | surviving fraction (TEMOZOLOMIDE; 5 nM) | surviving fraction (TEMOZOLOMIDE; 10 nM) | surviving fraction (TEMOZOLOMIDE; 50 nM) | surviving fraction (TEMOZOLOMIDE; 100 nM) | surviving fraction (TEMOZOLOMIDE; 500 nM) | surviving fraction (TEMOZOLOMIDE; 1000 nM) |
| --- | --- | --- | --- | --- | --- | --- | --- | --- | --- | --- | --- | --- | --- | --- | --- | --- |
| NY BONE | 0.99 ± 0.041 | 0.971 ± 0.023 | 1.08 ± 0.002 | 1.03 ± 0.048 | 1.11 ± 0.022 | 1.09 ± 0.043 | 1.07 ± 0.051 | 1.106 ± 0.0067 | 1.01 ± 0.033 | 1.05 ± 0.018 | 1.01 ± 0.066 | 1.09 ± 0.035 | 1.063 ± 0.004 | 1.09 ± 0.029 | 1.014 ± 0.0032 | 1.02 ± 0.013 |
| OS25HAL BONE | 1.02 ± 0.057 | 1.006 ± 0.0082 | 1.03 ± 0.039 | 1.03 ± 0.014 | 1.09 ± 0.018 | 1.04 ± 0.042 | 1.09 ± 0.025 | 1.03 ± 0.038 | 1.02 ± 0.037 | 1.09 ± 0.031 | 1.06 ± 0.019 | 1.11 ± 0.023 | 1.02 ± 0.033 | 1.09 ± 0.03 | 1.07 ± 0.051 | 1.08 ± 0.041 |
| OSHN BONE | 1.01 ± 0.049 | 0.989 ± 0.042 | 1.03 ± 0.044 | 1.02 ± 0.026 | 1.03 ± 0.021 | 0.979 ± 0.01 | 1 ± 0.0049 | 0.998 ± 0.014 | 1.05 ± 0.014 | 1.08 ± 0.018 | 1.06 ± 0.018 | 1.13 ± 0.035 | 1.07 ± 0.016 | 1.1 ± 0.028 | 1.081 ± 0.0068 | 1.1 ± 0.018 |
| PCI30 HEADNECK | 0.958 ± 0.054 | 0.951 ± 0.062 | 1.07 ± 0.044 | 0.991 ± 0.083 | 1.05 ± 0.067 | 1.02 ± 0.072 | 1.07 ± 0.093 | 1.18 ± 0.1 | 0.957 ± 0.026 | 0.976 ± 0.067 | 0.988 ± 0.023 | 1.04 ± 0.043 | 1.07 ± 0.047 | 1.05 ± 0.041 | 0.937 ± 0.013 | 0.939 ± 0.03 |
| RDES SOFT TISSUE | 1.16 ± 0.061 | 1.22 ± 0.13 | 1.04 ± 0.13 | 1.05 ± 0.12 | 0.953 ± 0.017 | 0.871 ± 0.056 | 0.987 ± 0.075 | 1.01 ± 0.13 | 1.11 ± 0.033 | 1.2 ± 0.06 | 1.14 ± 0.088 | 1.02 ± 0.12 | 1.15 ± 0.13 | 1.3 ± 0.14 | 1.27 ± 0.15 | 1.34 ± 0.17 |
| S68 BREAST | 1.01 ± 0.3 | 1.06 ± 0.074 | 1.04 ± 0.15 | 1.53 ± 0.22 | 0.832 ± 0.079 | 0.909 ± 0.13 | 0.891 ± 0.12 | 1.08 ± 0.26 | 0.996 ± 0.22 | 1.07 ± 0.034 | 1.08 ± 0.18 | 1.06 ± 0.12 | 1.04 ± 0.044 | 1.09 ± 0.25 | 1.05 ± 0.078 | 1.29 ± 0.24 |
| SAOS2 BONE | 1.11 ± 0.024 | 1.06 ± 0.082 | 1.14 ± 0.054 | 1.12 ± 0.023 | 0.9 ± 0.069 | 0.836 ± 0.066 | 0.831 ± 0.079 | 0.839 ± 0.14 | 1.1 ± 0.026 | 1.12 ± 0.099 | 1.25 ± 0.047 | 1.2 ± 0.05 | 1.2 ± 0.13 | 1.23 ± 0.081 | 1.16 ± 0.063 | 1.18 ± 0.14 |
| SCC003 HEADNECK | 1.06 ± 0.027 | 1.01 ± 0.12 | 1.1 ± 0.026 | 1.04 ± 0.061 | 1.08 ± 0.13 | 0.949 ± 0.081 | 0.998 ± 0.14 | 1.04 ± 0.099 | 1.05 ± 0.077 | 1.04 ± 0.059 | 1.08 ± 0.072 | 1.15 ± 0.073 | 1.06 ± 0.034 | 1.1 ± 0.071 | 1.07 ± 0.057 | 1.09 ± 0.036 |
| SCC36 HEADNECK | 1.03 ± 0.063 | 0.903 ± 0.069 | 1.03 ± 0.068 | 1.027 ± 0.0046 | 0.843 ± 0.039 | 0.77 ± 0.033 | 0.838 ± 0.033 | 0.77 ± 0.048 | 1.04 ± 0.065 | 1.08 ± 0.088 | 1.19 ± 0.11 | 1.14 ± 0.069 | 1.07 ± 0.056 | 1.08 ± 0.14 | 1.11 ± 0.1 | 1.05 ± 0.078 |
